Measured values: US9352015B2, “Antimicrobial peptides” (priority 2009, dated 2016)
Converted amounts (≈) assume the structure as drawn. “Also recorded” adds a separate entry of the source. Where two headings read alike, the source gives them in different places. Where a SMILES comes first, the peptide text is derived from it.

What was measured:
[1] = test system: Gram-negative bacteria; assay: MIC against Gram-negative bacteria (V681 analog studies); format: cell-based
Experimental: Minimal inhibitory concentrations (MICs) are determined using a standard microtiter dilution method, with 3 sets of determinations, in LB (Luria-Bertani) no-salt medium (10 g of tryptone and 5 g of yeast extract per liter). In some cases, Mueller Hinton (MH) medium or Brain Heart Infusion (BHI) medium is used.
Briefly, cells were grown overnight at 37° C. in LB and diluted in the same medium. Serial dilutions of the peptides are added to the microtiter plates in a volume of 100 μl followed by 10 μl of bacteria to give a final inoculum of 5×10^5 colony-forming units/ml. Plates are incubated at 37° C. for 24 hours and MICs determined as the lowest peptide concentration that inhibited growth. Alternatively, minimal inhibitory concentrations are determined using a standard microtiter dilution method in a Mueller-Hinton (MH) medium. Briefly, cells are grown overnight at 37° C. in MH broth and diluted in the same medium. In some cases, serial dilutions of the peptides are added to the microtiter plates in a volume of 100 μl followed by 10 μl of bacteria to give a final inoculum of 1×10^5 colony-forming units/ml. Plates are incubated at 37° C. for 24 hours and MICs are determined as the lowest peptide concentration that inhibited growth.

[2] = test system: human erythrocytes; assay: Hemolytic activity against human erythrocytes (HC50 / MHC, microtiter dilution); format: cell-based
Experimental: Hemoglobin release was determined spectrophotometrically at 570 nm. The hemolytic activity was determined as the peptide concentration that caused 50% hemolysis of erythrocytes after 18 h (HC50). […] HC50 was determined by a plot of peptide concentration versus percent lysis.

[3] = test system: human erythrocytes; assay: as above; format: cell-based; settings: V681 analog studies
[4] = RP-HPLC temperature profiling (peptide self-association parameter PA); format: physicochemical; settings: enantiomer pairs of V681 analogs, 5° C. to 80° C., relative to peptide C
Summary of the method: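 Peptide retention was profiled by RP-HPLC at pH 2 from 5 °C to 80 °C in 3 °C increments, using a linear gradient of 0.5% acetonitrile/min. The monomeric random-coil control peptide C profile was subtracted. PA is the maximum change in retention time relative to control C; higher PA means greater self-association.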

[5] = RP-HPLC retention as measure of overall peptide hydrophobicity; format: physicochemical; settings: 80° C.
Experimental: Crude and purified peptides were analyzed on an Agilent 1100 series liquid chromatograph (Little Falls, Del.). Runs were performed on a Zorbax 300 SB-C8 column (150×2.1 mm I.D.; 5 μm particle size, 300 Å pore size) from Agilent Technologies using linear AB gradient (1% acetonitrile/min) and a flow rate of 0.25 ml/min, where eluant A was 0.2% aqueous TFA, pH 2 and eluant B was 0.2% TFA in acetonitrile.

[6] = test system: human erythrocytes; settings: WO 2006/065977, cited from earlier work
[7] = 50% TFE in 0.05% TFA; cited from earlier work
[8] = Circular dichroism spectroscopy (helical structure); format: physicochemical

## CC[C@H](C)[C@H](NC(=O)[C@H](C)NC(=O)[C@H](CCCCN)NC(=O)[C@H](CC(C)C)NC(=O)[C@H](C)NC(=O)[C@@H](NC(=O)[C@H](Cc1cnc[nH]1)NC(=O)[C@H](CC(C)C)NC(=O)[C@@H](NC(=O)[C@@H](NC(=O)[C@H](CCCCN)NC(=O)[C@H](CCCCN)NC(=O)[C@H](C)NC(=O)[C@H](CO)NC(=O)[C@H](CCCCN)NC(=O)[C@H](Cc1ccccc1)NC(=O)[C@@H](NC(=O)[C@H](CCCCN)NC(=O)[C@H](CC(C)C)NC(=O)[C@H](Cc1ccccc1)NC(=O)[C@H](CO)NC(=O)[C@H](CCCCN)NC(=O)[C@H](Cc1c[nH]c2ccccc12)NC(=O)[C@H](CCCCN)NC(C)=O)[C@@H](C)O)[C@@H](C)O)C(C)C)[C@@H](C)O)C(=O)N[C@@H](CO)C(=O)N[C@@H](CO)C(N)=O [NKL]
[1]
  MIC against Gram-negative bacteria: 3.1 µg/mL (≈ 1.04 µM)
[2]
  Fold decrease in hemolytic activity compared to V681: > 32 fold
[3]
  Hemolytic activity, minimal hemolytic concentration (MHC): undetectable level; also recorded: non-hemolytic; also recorded: no detectable hemolytic activity; also recorded: no measurable activity
[4]
  PA (peptide self-association parameter): 2.1
[5]; non-polar face substitution
  Change in hydrophobicity (retention time) relative to NVL (V681): -12.61 min

## CC[C@H](C)[C@H](NC(=O)[C@H](C)NC(=O)[C@H](CCCCN)NC(=O)[C@H](CC(C)C)NC(=O)[C@H](C)NC(=O)[C@@H](NC(=O)[C@H](Cc1c[nH]cn1)NC(=O)[C@H](CC(C)C)NC(=O)[C@@H](NC(=O)[C@@H](NC(=O)[C@H](CCCCN)NC(=O)[C@@H](C)NC(=O)[C@H](C)NC(=O)[C@H](CO)NC(=O)[C@H](CCCCN)NC(=O)[C@H](Cc1ccccc1)NC(=O)[C@@H](NC(=O)[C@H](CCCCN)NC(=O)[C@H](CC(C)C)NC(=O)[C@H](Cc1ccccc1)NC(=O)[C@H](CO)NC(=O)[C@H](CCCCN)NC(=O)[C@H](Cc1c[nH]c2ccccc12)NC(=O)[C@H](CCCCN)NC(C)=O)[C@@H](C)O)[C@@H](C)O)C(C)C)[C@@H](C)O)C(=O)N[C@@H](CO)C(=O)N[C@@H](CO)C(N)=O [NAD] (HELM PEPTIDE1{[ac].K.W.K.S.F.L.K.T.F.K.S.A.[dA].K.T.V.L.H.T.A.L.K.A.I.S.S.[am]}$$$$V2.0)
[6]; after 12 hours
  Hemolytic activity: 250 µg/mL
[6]; after 18 hours
  Hemolytic activity: 31.3 µg/mL
[4]
  PA (peptide self-association parameter): 4.1

## CC[C@H](C)[C@H](NC(=O)[C@H](C)NC(=O)[C@H](CCCCN)NC(=O)[C@H](CC(C)C)NC(=O)[C@H](C)NC(=O)[C@@H](NC(=O)[C@H](Cc1c[nH]cn1)NC(=O)[C@H](CC(C)C)NC(=O)[C@@H](NC(=O)[C@@H](NC(=O)[C@H](CCCCN)NC(=O)[C@@H](NC(=O)[C@H](C)NC(=O)[C@H](CO)NC(=O)[C@H](CCCCN)NC(=O)[C@H](Cc1ccccc1)NC(=O)[C@@H](NC(=O)[C@H](CCCCN)NC(=O)[C@H](CC(C)C)NC(=O)[C@H](Cc1ccccc1)NC(=O)[C@H](CO)NC(=O)[C@H](CCCCN)NC(=O)[C@H](Cc1c[nH]c2ccccc12)NC(=O)[C@H](CCCCN)NC(C)=O)[C@@H](C)O)C(C)C)[C@@H](C)O)C(C)C)[C@@H](C)O)C(=O)N[C@@H](CO)C(=O)N[C@@H](CO)C(N)=O [Peptide V681] (Ac-KWKSFLKTFKSAVKTVLHTALKAISS-NH2)
[7]
  Transition temperature Tm (50% of α-helical structure denatured): 79.3 °C
[8]; 50% TFE
  [θ]222 molar ellipticity: −27,300
  α-helical content: 94%
[8]; benign conditions
  α-helical content: 45%
[8]; benign conditions (100 mM KCl, 50 mM aq. PO4, pH 7)
  [θ]222 molar ellipticity: −12,900
[3]
  Hemolytic activity, minimal hemolytic concentration (MHC): 15.6 µg/mL
[4]
  PA (peptide self-association parameter): 7.2
[5]; polar face substitution
  Change in hydrophobicity (retention time) relative to PVL: -0.35 min

## CC[C@H](C)[C@H](NC(=O)[C@H](C)NC(=O)[C@H](CCCCN)NC(=O)[C@H](CC(C)C)NC(=O)[C@H](C)NC(=O)[C@@H](NC(=O)[C@H](Cc1c[nH]cn1)NC(=O)[C@H](CC(C)C)NC(=O)[C@@H](NC(=O)[C@@H](NC(=O)[C@H](CCCCN)NC(=O)[C@H](CC(C)C)NC(=O)[C@H](C)NC(=O)[C@H](CO)NC(=O)[C@H](CCCCN)NC(=O)[C@H](Cc1ccccc1)NC(=O)[C@@H](NC(=O)[C@H](CCCCN)NC(=O)[C@H](CC(C)C)NC(=O)[C@H](Cc1ccccc1)NC(=O)[C@H](CO)NC(=O)[C@H](CCCCN)NC(=O)[C@H](Cc1c[nH]c2ccccc12)NC(=O)[C@H](CCCCN)NC(C)=O)[C@@H](C)O)[C@@H](C)O)C(C)C)[C@@H](C)O)C(=O)N[C@@H](CO)C(=O)N[C@@H](CO)C(N)=O [NLL] (Ac-KWKSFLKTFKSALKTVLHTALKAISS-NH2)
[1]
  MIC against Gram-negative bacteria: 12.7 µg/mL (≈ 4.27 µM)
